# How the values were obtained:
# [1] = target: MRP2/3 (Homo sapiens, UniProt O15438); details: in vitro; cited from earlier work
# [2] = target: T1, 1A2 (Homo sapiens, UniProt P05177); test: CYP1A2 inhibition; format: in vitro ADME; details: up to 10 μM
# T1 sequence (P05177 1-516): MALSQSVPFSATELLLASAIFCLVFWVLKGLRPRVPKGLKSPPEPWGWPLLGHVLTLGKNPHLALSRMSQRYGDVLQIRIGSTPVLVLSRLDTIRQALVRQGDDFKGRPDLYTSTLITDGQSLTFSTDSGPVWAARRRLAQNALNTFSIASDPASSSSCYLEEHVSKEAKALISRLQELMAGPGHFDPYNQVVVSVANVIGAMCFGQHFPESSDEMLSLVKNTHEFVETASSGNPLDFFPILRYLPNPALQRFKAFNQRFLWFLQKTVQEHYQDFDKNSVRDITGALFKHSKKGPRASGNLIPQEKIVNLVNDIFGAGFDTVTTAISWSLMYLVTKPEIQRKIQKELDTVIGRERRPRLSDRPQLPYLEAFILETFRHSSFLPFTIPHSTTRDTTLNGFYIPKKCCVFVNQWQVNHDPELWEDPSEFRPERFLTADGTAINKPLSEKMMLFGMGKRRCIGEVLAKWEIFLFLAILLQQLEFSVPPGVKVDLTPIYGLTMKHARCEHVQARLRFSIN
# [3] = target: T2, 2B6 (Homo sapiens, UniProt P20813); test: CYP2B6 inhibition; format: in vitro ADME; details: up to 10 μM
# T2 sequence (P20813 1-491): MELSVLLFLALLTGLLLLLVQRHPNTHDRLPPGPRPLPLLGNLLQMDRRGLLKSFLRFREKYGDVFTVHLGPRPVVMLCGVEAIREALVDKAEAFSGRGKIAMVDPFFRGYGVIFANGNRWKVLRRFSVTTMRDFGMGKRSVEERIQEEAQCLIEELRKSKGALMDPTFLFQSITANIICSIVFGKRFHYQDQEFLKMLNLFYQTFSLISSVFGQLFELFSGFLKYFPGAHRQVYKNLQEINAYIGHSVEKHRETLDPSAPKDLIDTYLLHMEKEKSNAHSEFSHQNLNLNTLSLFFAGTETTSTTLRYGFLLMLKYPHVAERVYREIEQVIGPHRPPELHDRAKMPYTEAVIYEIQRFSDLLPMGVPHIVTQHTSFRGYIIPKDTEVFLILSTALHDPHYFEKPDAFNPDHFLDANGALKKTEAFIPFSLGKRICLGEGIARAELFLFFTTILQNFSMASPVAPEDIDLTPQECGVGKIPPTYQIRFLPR
# [4] = system: CYP3A4/5; test: CYP3A4/5 inhibition; format: in vitro ADME; details: up to 10 μM
# [5] = system: Digoxin (a pgp-substrate); details: SMV co-administered with Digoxin; cited from earlier work
# [6] = system: Rosuvastatin (substrate of OATPs & BCRP); details: SMV co-administered with Rosuvastatin; cited from earlier work
# [7] = system: CYP3A4; test: CYP3A4 induction; format: in vitro ADME; details: up to 10 μM
# Chain of MRP2/3 (O15438 whole entry): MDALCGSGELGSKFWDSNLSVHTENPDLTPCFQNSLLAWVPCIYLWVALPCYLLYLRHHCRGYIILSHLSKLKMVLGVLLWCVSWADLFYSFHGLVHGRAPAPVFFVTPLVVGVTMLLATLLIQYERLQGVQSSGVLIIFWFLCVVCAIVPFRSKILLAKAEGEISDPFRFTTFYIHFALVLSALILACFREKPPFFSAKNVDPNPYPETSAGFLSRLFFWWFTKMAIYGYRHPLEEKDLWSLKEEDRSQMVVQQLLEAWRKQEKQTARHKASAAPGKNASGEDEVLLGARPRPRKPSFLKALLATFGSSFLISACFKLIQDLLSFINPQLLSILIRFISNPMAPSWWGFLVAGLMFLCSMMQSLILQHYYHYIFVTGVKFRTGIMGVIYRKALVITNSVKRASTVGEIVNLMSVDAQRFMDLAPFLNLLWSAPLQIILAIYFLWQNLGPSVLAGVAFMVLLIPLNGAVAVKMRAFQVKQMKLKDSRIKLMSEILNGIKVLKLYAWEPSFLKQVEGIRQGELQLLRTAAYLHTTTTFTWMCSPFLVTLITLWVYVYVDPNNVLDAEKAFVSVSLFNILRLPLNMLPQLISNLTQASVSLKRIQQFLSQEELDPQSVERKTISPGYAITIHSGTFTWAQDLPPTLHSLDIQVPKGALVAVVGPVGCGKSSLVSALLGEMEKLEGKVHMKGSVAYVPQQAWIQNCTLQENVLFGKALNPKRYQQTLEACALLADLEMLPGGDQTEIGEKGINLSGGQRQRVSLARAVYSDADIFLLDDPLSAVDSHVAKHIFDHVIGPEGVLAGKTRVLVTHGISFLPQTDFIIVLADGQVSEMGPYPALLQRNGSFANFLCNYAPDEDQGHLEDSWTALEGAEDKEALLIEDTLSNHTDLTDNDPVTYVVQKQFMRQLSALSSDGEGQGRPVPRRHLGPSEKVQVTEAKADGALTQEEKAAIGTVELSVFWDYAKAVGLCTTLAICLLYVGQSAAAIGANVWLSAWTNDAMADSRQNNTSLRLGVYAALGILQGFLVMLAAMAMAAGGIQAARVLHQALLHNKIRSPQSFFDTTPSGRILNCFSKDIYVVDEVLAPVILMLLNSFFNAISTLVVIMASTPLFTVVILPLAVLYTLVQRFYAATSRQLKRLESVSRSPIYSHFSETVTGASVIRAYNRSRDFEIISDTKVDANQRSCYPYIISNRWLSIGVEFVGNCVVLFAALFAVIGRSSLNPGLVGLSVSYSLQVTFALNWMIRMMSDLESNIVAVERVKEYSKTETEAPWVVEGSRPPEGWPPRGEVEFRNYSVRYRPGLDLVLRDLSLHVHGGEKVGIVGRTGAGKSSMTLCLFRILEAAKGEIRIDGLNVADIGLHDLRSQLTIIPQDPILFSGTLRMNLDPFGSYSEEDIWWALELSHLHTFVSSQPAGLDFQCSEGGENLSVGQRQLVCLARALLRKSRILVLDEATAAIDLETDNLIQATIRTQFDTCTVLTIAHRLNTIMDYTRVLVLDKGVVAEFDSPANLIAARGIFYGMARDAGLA
inhibition of 1A2 [2],inhibition of 2B6 [3],inhibition of CYP3A4/5 [4],Compound,MRP3 inhibition (in words) [1],increase in exposure of Digoxin [5] [%],increase in Rosuvastatin exposure [6] [fold],induction of CYP3A4 [7]
no inhibition,no inhibition,no inhibition,"COC(=O)N[C@H](C(=O)N1[C@H](c2nc3cc(-c4cc5ccc4CCc4ccc(c(-c6ccc7[nH]c([C@@H]8C[C@@H]9CCCC[C@@H]9N8C(=O)[C@@H](NC(=O)OC)C(C)C)nc7c6)c4)CC5)ccc3[nH]2)C[C@@H]2CCCC[C@@H]21)C(C)C [ODV, Odalasvir]",no inhibition,–,–,–
–,–,–,"COc1ccc2c(O[C@@H]3C[C@H]4C(=O)N[C@]5(C(=O)NS(=O)(=O)C6CC6)C[C@H]5/C=C\CCCCN(C)C(=O)[C@@H]4C3)cc(-c3nc(C(C)C)cs3)nc2c1C [SMV, Simeprevir, reference compound]",–,35,3,no induction
